# Literature values, collected in PMC3867298 (Clinical cancer research : an official journal of the …, 2010).
# Tested on: renal cell carcinoma patients
# Conditions: 375 renal cell carcinoma patients, recommended phase 2 dose; cited from earlier work
smiles,measurement,value
CCN(CC)CCNC(=O)c1c(C)[nH]c(/C=C2\C(=O)Nc3ccc(F)cc32)c1C [sunitinib],Patients with at least 1 treatment-related dose reduction,32%
